# Counter-ions that a name gives are not always drawn.
# What was measured:
# [1] = tested on: SKOV3: human ovarian carcinoma cell line; assay: Proliferation IC50 assay, oxic/hypoxic, SKOV3; type: cell-based; details: Table 3; for IC50: 4 h exposure under aerobic conditions; for HCR (hypoxic cytotoxicity ratio) SKOV3: IC50(aerobic)/IC10(hypoxic)
# [2] = tested on: HT29: human colon cancer cell line; assay: Proliferation IC50 assay, oxic/hypoxic, HT29; type: cell-based; details: Table 3; for IC50: 4 h exposure under aerobic conditions; for HCR (hypoxic cytotoxicity ratio) HT29: IC50(aerobic)/IC10(hypoxic)
compound,measurement,setting,value
"CN(C)CCOc1ccc2[nH]c(C(=O)N3CC(CCl)c4c3cc([N+](=O)[O-])c3cc([N+](=O)[O-])ccc43)cc2c1 (stereo not shown) [Compound 9, 1-(Chloromethyl)-3-{5-[2-(dimethylamino)ethoxy]indol-2-carbonyl}-5,7-dinitro-1,2-dihydro-3H-benzo[e]indole]",IC50,"[1]; Homo sapiens, SK-OV-3",1.1 µM
same,HCR (hypoxic cytotoxicity ratio) SKOV3,[1],9.3
same,IC50,"[2]; Homo sapiens, HT-29",0.89 µM
same,HCR (hypoxic cytotoxicity ratio) HT29,[2],9.6
"CN(C)CCOc1ccc2[nH]c(C(=O)N3CC(CCl)c4c3cc([N+](=O)[O-])c3ccc(C(N)=O)cc43)cc2c1 (stereo not shown) (as salt: TFA) [Compound 43, 1-(Chloromethyl)-3-{5-[2-(dimethylamino)ethoxy]indol-2-carbonyl}-5-nitro-1,2-dihydro-3H-benzo[e]indole-8-carboxamide]",melting point,,> 320 °C
"CN(C)CCOc1ccc2[nH]c(C(=O)N3CC(CCl)c4c3cc([N+](=O)[O-])c3cc(C(=O)NCCO)ccc43)cc2c1 (stereo not shown) (as salt: HCl) [Compound 19, 1-(Chloromethyl)-3-(5-[2-(dimethylamino)ethoxy]indol-2-carbonyl)-N-(2-hydroxyethyl)-5-nitro-1,2-dihydro-3H-benzo[e]indole-7-carboxamide]",melting point,,231 to 233 °C (dec.)
"COc1cc2cc(C(=O)N3CC(CCl)c4c3cc([N+](=O)[O-])c3ccc(C(=O)NCCN(C)C)cc43)[nH]c2c(OC)c1OC (stereo not shown) [Compound 44, 1-(Chloromethyl)-N-[2-(dimethylamino)ethyl]-5-nitro-3-(5,6,7-trimethoxyindol-2-carbonyl)-1,2-dihydro-3H-benzo[e]indole-8-carboxamide]",IC50,"[1]; Homo sapiens, SK-OV-3",2.5 µM
same,HCR (hypoxic cytotoxicity ratio) SKOV3,[1],16
same,IC50,"[2]; Homo sapiens, HT-29",1.3 µM
same,HCR (hypoxic cytotoxicity ratio) HT29,[2],2.4
"CNS(=O)(=O)c1ccc2c3c(cc([N+](=O)[O-])c2c1)N(C(=O)c1cc2cc(OCCN(C)C)ccc2[nH]1)CC3CCl (stereo not shown) [Compound 32, 1-(Chloromethyl)-3-{5-[2-(dimethylamino)ethoxy]indol-2-carbonyl}-N-methyl-5-nitro-1,2-dihydro-3H-benzo[e]indole-7-sulfonamide]",IC50,"[1]; Homo sapiens, SK-OV-3",2.6 µM
same,HCR (hypoxic cytotoxicity ratio) SKOV3,[1],21
same,IC50,"[2]; Homo sapiens, HT-29",2.7 µM
same,HCR (hypoxic cytotoxicity ratio) HT29,[2],24
"COc1cc2cc(C(=O)N3CC(CCl)c4c3cc([N+](=O)[O-])c3cccc([N+](=O)[O-])c43)[nH]c2c(OC)c1OC (stereo not shown) [Compound 51, 1-(Chloromethyl)-5,9-dinitro-(5,6,7-trimethoxyindol-2-carbonyl)-1,2-dihydro-3H-benzo[e]indole]",IC50,[1],55 µM
same,IC50,[2],34 µM
same,HCR (hypoxic cytotoxicity ratio) HT29,[2],1.2
"COc1cc2cc(C(=O)N3CC(CCl)c4c3cc([N+](=O)[O-])c3ccc(C(=O)NCCN(C)C)cc43)[nH]c2c(OC)c1OC (stereo not shown) (as salt: HCl) [Compound 44, 1-(Chloromethyl)-N-[2-(dimethylamino)ethyl]-5-nitro-3-(5,6,7-trimethoxyindol-2-carbonyl)-1,2-dihydro-3H-benzo[e]indole-8-carboxamide]",melting point,,228 to 229 °C (dec.)
CC(=O)c1cccc2c3c(cc([N+](=O)[O-])c12)N(C(=O)c1cc2cc(OCCN(C)C)ccc2[nH]1)CC3CCl (stereo not shown) [Compound 4],IC50,[1],0.64 µM
same,HCR (hypoxic cytotoxicity ratio) SKOV3,[1],12
same,IC50,[2],0.2 µM
same,HCR (hypoxic cytotoxicity ratio) HT29,[2],5.2
COc1cc2cc(C(=O)N3CC(CCl)c4c3cc([N+](=O)[O-])c3cc(C#N)ccc43)[nH]c2c(OC)c1OC (stereo not shown) [Compound 21],IC50,[1],6.4 µM
same,HCR (hypoxic cytotoxicity ratio) SKOV3,[1],13
same,IC50,[2],5.3 µM
same,HCR (hypoxic cytotoxicity ratio) HT29,[2],2.5
"COc1cc2cc(C(=O)N3CC(CCl)c4c3cc([N+](=O)[O-])c3ccccc43)[nH]c2c(OC)c1OC (stereo not shown) [Compound R1, reference compound]",IC50,"[1]; Homo sapiens, SK-OV-3",4.2 µM
same,HCR (hypoxic cytotoxicity ratio) SKOV3,[1],2.8
same,IC50,"[2]; Homo sapiens, HT-29",3.4 µM
same,HCR (hypoxic cytotoxicity ratio) HT29,[2],2.5
"CN(C)CCOc1ccc2[nH]c(C(=O)N3CC(CCl)c4c3cc([N+](=O)[O-])c3cc(S(=O)(=O)N(C)C)ccc43)cc2c1 (stereo not shown) [Compound 38, 1-(Chloromethyl)-3-{5-[2-(dimethylamino)ethoxy]indol-2-carbonyl}-N,N-dimethyl-5-nitro-1,2-dihydro-3H-benzo[e]indole-7-sulfonamide]",IC50,"[1]; Homo sapiens, SK-OV-3",0.5 µM
same,HCR (hypoxic cytotoxicity ratio) SKOV3,[1],2.4
same,IC50,"[2]; Homo sapiens, HT-29",1.1 µM
same,HCR (hypoxic cytotoxicity ratio) HT29,[2],3.6
"CN(C)CCOc1ccc2[nH]c(C(=O)N3CC(CCl)c4c3cc([N+](=O)[O-])c3cc(S(N)(=O)=O)ccc43)cc2c1 (stereo not shown) (as salt: HCl) [Compound 26, 1-(Chloromethyl)-3-{5-[2-(dimethylamino)ethoxy]indol-2-carbonyl}-5-nitro-1,2-dihydro-3H-benzo[e]indole-7-sulfonamide]",melting point,,> 350 °C
COc1cc2cc(C(=O)N3CC(CCl)c4c3cc([N+](=O)[O-])c3cc(S(=O)(=O)NCCOP(=O)(O)O)ccc43)[nH]c2c(OC)c1OC (stereo not shown),melting point,,228 to 232 °C
"CN(C)CCOc1ccc2[nH]c(C(=O)N3CC(CCl)c4c3cc([N+](=O)[O-])c3cc(S(C)(=O)=O)ccc43)cc2c1 (stereo not shown) (as salt: HCl) [Compound 24, 1-(Chloromethyl)-3-{5-[2-(dimethylamino)ethoxy]indol-2-carbonyl}-7-(methylsulfonyl)-5-nitro-1,2-dihydro-3H-benzo[e]indole]",melting point,,250 to 252 °C
NS(=O)(=O)c1ccc2c3c(cc([N+](=O)[O-])c2c1)N(C(=O)c1cc2cc(OCCO)ccc2[nH]1)CC3CCl (stereo not shown),melting point,,231 to 234 °C
"CNS(=O)(=O)c1ccc2c3c(cc([N+](=O)[O-])c2c1)N(C(=O)c1cc2cc(OCCN(C)C)ccc2[nH]1)CC3CCl (stereo not shown) (as salt: HCl) [Compound 32, 1-(Chloromethyl)-3-{5-[2-(dimethylamino)ethoxy]indol-2-carbonyl}-N-methyl-5-nitro-1,2-dihydro-3H-benzo[e]indole-7-sulfonamide]",melting point,,> 350 °C
"CN(C)CCOc1ccc2[nH]c(C(=O)N3CC(CCl)c4c3cc([N+](=O)[O-])c3cc(S(=O)(=O)N(C)C)ccc43)cc2c1 (stereo not shown) (as salt: HCl) [Compound 38, 1-(Chloromethyl)-3-{5-[2-(dimethylamino)ethoxy]indol-2-carbonyl}-N,N-dimethyl-5-nitro-1,2-dihydro-3H-benzo[e]indole-7-sulfonamide]",melting point,,> 350 °C
"CN(C)CCOc1ccc2[nH]c(C(=O)N3CC(CCl)c4c3cc([N+](=O)[O-])c3cc(S(=O)(=O)NN)ccc43)cc2c1.Cl.Cl (stereo not shown) [Compound 31, 1-(Chloromethyl)-3-{5-[2-(dimethylamino)ethoxy]indol-2-carbonyl}-5-nitro-1,2-dihydro-3H-benzo[e]indole-7-sulfonohydrazide dihydrochloride]",IC50,"[1]; Homo sapiens, SK-OV-3",33 µM
same,HCR (hypoxic cytotoxicity ratio) SKOV3,[1],160
same,IC50,"[2]; Homo sapiens, HT-29",31 µM
same,HCR (hypoxic cytotoxicity ratio) HT29,[2],220
NS(=O)(=O)c1ccc2c3c(cc([N+](=O)[O-])c2c1)N(C(=O)c1cc2cc(OCCOP(=O)(O)O)ccc2[nH]1)CC3CCl (stereo not shown),melting point,,207 to 211 °C
"COC(=O)c1ccc2c3c(cc([N+](=O)[O-])c2c1)N(C(=O)c1cc2cc(OCCN(C)C)ccc2[nH]1)CC3CCl (stereo not shown) (as salt: HCl) [Compound 14, Methyl 1-(chloromethyl)-3-{5-[2-(dimethylamino)ethoxy]indol-2-carbonyl}-5-nitro-1,2-dihydro-3H-benzo[e]indole-7-carboxylate]",melting point,,> 300 °C
"CN(C)CCOc1ccc2[nH]c(C(=O)N3CC(CCl)c4c3cc([N+](=O)[O-])c3c([N+](=O)[O-])cccc43)cc2c1 (stereo not shown) (as salt: HCl) [Compound 2, 1-(Chloromethyl)-3-(5-[2-(dimethylamino)ethoxy]indol-2-carbonyl)-5,6-dinitro-1,2-dihydro-3H-benzo[e]indole]",melting point,,225 to 226 °C
"CN(C)CCOc1ccc2[nH]c(C(=O)N3CC(CCl)c4c3cc([N+](=O)[O-])c3cc([N+](=O)[O-])ccc43)cc2c1 (stereo not shown) (as salt: HCl) [Compound 9, 1-(Chloromethyl)-3-{5-[2-(dimethylamino)ethoxy]indol-2-carbonyl}-5,7-dinitro-1,2-dihydro-3H-benzo[e]indole]",melting point,,263 to 264 °C
"COC(=O)c1ccc2c([N+](=O)[O-])cc3c(c2c1)C(CCl)CN3C(=O)c1cc2cc(OCCN(C)C)ccc2[nH]1 (stereo not shown) [Compound 42, Methyl 1-(chloromethyl)-3-{5-[2-(dimethylamino)ethoxy]indol-2-carbonyl}-5-nitro-1,2-dihydro-3H-benzo[e]indole-8-carboxylate]",IC50,"[1]; Homo sapiens, SK-OV-3",0.52 µM
same,HCR (hypoxic cytotoxicity ratio) SKOV3,[1],2.4
same,IC50,"[2]; Homo sapiens, HT-29",0.55 µM
same,HCR (hypoxic cytotoxicity ratio) HT29,[2],1.6
"CN(C)CCOc1ccc2[nH]c(C(=O)N3CC(CCl)c4c3cc([N+](=O)[O-])c3cc(S(=O)(=O)NO)ccc43)cc2c1.Cl (stereo not shown) [Compound 30, 1-(Chloromethyl)-3-{5-[2-(dimethylamino)ethoxy]indol-2-carbonyl}-N-hydroxy-5-nitro-4,2-dihydro-3H-benzo[e]indole-7-sulfonamide hydrochloride]",IC50,[1],24 µM
same,HCR (hypoxic cytotoxicity ratio) SKOV3,[1],55
same,IC50,[2],24 µM
same,HCR (hypoxic cytotoxicity ratio) HT29,[2],160
"COc1cc2cc(C(=O)N3CC(CCl)c4c3cc([N+](=O)[O-])c3cc(S(N)(=O)=O)ccc43)[nH]c2c(OC)c1OC (stereo not shown) [Compound 25, 1-(Chloromethyl)-5-nitro-3-(5,6,7-trimethoxyindol-2-carbonyl)-1,2-dihydro-3H-benzo[e]indole-7-sulfonamide]",IC50,"[1]; Homo sapiens, SK-OV-3",37 µM
same,HCR (hypoxic cytotoxicity ratio) SKOV3,[1],10
same,IC50,"[2]; Homo sapiens, HT-29",43 µM
same,HCR (hypoxic cytotoxicity ratio) HT29,[2],3.6
"CN(C)CCOc1ccc2[nH]c(C(=O)N3CC(CCl)c4c3cc([N+](=O)[O-])c3cc(C(=O)NCCO)ccc43)cc2c1 (stereo not shown) [Compound 19, 1-(Chloromethyl)-3-(5-[2-(dimethylamino)ethoxy]indol-2-carbonyl)-N-(2-hydroxyethyl)-5-nitro-1,2-dihydro-3H-benzo[e]indole-7-carboxamide]",IC50,"[1]; Homo sapiens, SK-OV-3",8.9 µM
same,HCR (hypoxic cytotoxicity ratio) SKOV3,[1],160
same,IC50,"[2]; Homo sapiens, HT-29",12 µM
same,HCR (hypoxic cytotoxicity ratio) HT29,[2],490

# — patent US7718688B2, “Nitrobenzindoles and their use in cancer therapy” (Auckland Uniservices Limited, priority 2004, dated 2010)
